Results: patent US6495591B1, “Fungal efflux pump inhibitors” (Essential Therapeutics, Inc., priority 1997, dated 2002)

Legend:
[1] = tested on: YEM 17 C. glabrata, CgCDR up; format: cell-based; details: 24 hrs, 80% inhibition
[2] = tested on: YEM 24 C. albicans ΔCDR1, ΔCDR2; assay: microbe, parasite or virus in culture; format: cell-based; details: YEM 24, 24 hrs, 80% inhibition
Aspergillus fumigatus = assay: FEPI MICs in combination with 1/4 the azole's MIC (Table 12); format: cell-based; set-up: FEPI MIC (alone): unit not given here
Experimental: The combinations were tested against a series of Candida strain with known expression of efflux pumps or with complete deletion of all known pumps and Aspergillus fumigatus. Results are reported as minimum inhibitory concentration (MIC) of […] in the presence or absence of […]. A total of 27 distinct milbemycins were studied.

[3] = tested on: C. krusei YEM-52 (ATCC 90878), wild type; assay: Minimal concentration to reduce fluconazole MIC sixteen-fold (Table 7); format: cell-based; details: YEM-52, wild type
[4] = tested on: C. albicans YEM-15 (CDR1 & CDR2 overexpressor); format: cell-based
[5] = tested on: C. glabrata YEM-19 (CgCDR overexpressor); format: cell-based
[6] = biological target: pCDRI (ABC) efflux pump in S. cerevisiae YEM-1 (Candida albicans, UniProt P43071); assay: cell-based; format: cell-based, C. albicans; details: YEM-1 pCDRI; fluconazole fixed at FLUhalf 5.6
pCDRI (ABC) efflux pump in S. cerevisiae YEM-1, sequence (P43071 whole entry): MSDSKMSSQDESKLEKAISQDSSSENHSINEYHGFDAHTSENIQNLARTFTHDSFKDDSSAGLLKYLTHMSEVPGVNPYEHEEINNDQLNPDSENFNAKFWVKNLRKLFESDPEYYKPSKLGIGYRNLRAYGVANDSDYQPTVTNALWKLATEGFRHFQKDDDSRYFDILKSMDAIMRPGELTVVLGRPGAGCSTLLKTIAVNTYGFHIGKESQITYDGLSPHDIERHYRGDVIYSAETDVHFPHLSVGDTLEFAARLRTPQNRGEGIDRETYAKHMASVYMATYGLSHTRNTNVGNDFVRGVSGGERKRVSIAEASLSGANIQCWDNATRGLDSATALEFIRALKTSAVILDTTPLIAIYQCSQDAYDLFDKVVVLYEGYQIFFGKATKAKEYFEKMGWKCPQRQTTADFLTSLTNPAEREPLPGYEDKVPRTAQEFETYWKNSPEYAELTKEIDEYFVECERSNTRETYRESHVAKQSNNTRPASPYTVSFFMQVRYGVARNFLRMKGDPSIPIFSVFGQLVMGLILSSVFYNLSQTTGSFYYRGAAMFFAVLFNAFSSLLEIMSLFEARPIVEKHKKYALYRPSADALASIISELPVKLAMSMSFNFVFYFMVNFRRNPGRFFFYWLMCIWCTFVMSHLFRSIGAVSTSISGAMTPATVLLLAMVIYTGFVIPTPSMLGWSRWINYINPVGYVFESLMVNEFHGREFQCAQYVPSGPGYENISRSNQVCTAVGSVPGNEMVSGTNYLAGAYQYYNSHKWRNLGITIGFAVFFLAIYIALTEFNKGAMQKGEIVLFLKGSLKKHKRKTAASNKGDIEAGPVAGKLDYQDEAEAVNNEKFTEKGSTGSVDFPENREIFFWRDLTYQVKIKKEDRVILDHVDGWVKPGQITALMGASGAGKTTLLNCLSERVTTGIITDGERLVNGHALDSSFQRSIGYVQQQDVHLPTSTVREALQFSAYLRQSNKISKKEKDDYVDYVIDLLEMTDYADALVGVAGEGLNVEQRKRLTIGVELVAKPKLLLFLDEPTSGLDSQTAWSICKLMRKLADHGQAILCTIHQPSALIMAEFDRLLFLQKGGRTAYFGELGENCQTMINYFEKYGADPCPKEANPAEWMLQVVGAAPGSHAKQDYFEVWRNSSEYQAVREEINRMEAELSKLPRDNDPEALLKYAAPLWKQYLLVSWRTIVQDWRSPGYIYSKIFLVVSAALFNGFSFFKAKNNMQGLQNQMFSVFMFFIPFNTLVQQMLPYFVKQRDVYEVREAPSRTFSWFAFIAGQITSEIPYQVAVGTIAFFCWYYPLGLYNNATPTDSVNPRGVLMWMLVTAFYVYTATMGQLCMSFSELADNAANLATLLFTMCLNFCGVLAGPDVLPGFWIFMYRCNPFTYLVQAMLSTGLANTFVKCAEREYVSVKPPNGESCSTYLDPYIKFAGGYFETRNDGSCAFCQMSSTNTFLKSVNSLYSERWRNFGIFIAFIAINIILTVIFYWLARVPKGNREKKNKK

[7] = biological target: pCDR2 (ABC) efflux pump in S. cerevisiae YEM-37 (Candida albicans, UniProt P78595); assay: cell-based; format: cell-based, C. albicans; details: YEM-37 pCDR2; fluconazole fixed at FLUhalf 1
[8] = tested on: YEM 27 C. albicans ΔCDR1ΔCDR2 ΔBENΔFLU1; assay: microbe, parasite or virus in culture; format: cell-based; details: YEM 27, 24 hrs, 80% inhibition
[9] = tested on: pCgBEN (MF) efflux pump in S. cerevisiae YEM-40; format: cell-based, C. glabrata
C. albicans YEM-13 (BEN) = format: cell-based
YEM 30 C. albicans wt = assay: FEPI MIC with/without 1/8 fluconazole MIC at 24 hrs (Table 11); format: cell-based; details: YEM 30, 24 hrs, 80% inhibition
[10] = tested on: C. krusei YEM-52 (ATCC 90878), wild type; assay: Broth dilution MIC, fluconazole with/without milbemycin oxime (Table 6); format: cell-based; details: YEM-52; milbemycin oxime 2.5 μg/ml
[11] = biological target: pCgCDR (ABC) efflux pump in S. cerevisiae YEM-39 (Candida glabrata, UniProt Q6FK23); assay: cell-based; format: cell-based, C. glabrata; details: YEM-39 pCgCDR; fluconazole fixed at FLUhalf 4
pCgCDR (ABC) efflux pump in S. cerevisiae YEM-39, sequence (Q6FK23 whole entry): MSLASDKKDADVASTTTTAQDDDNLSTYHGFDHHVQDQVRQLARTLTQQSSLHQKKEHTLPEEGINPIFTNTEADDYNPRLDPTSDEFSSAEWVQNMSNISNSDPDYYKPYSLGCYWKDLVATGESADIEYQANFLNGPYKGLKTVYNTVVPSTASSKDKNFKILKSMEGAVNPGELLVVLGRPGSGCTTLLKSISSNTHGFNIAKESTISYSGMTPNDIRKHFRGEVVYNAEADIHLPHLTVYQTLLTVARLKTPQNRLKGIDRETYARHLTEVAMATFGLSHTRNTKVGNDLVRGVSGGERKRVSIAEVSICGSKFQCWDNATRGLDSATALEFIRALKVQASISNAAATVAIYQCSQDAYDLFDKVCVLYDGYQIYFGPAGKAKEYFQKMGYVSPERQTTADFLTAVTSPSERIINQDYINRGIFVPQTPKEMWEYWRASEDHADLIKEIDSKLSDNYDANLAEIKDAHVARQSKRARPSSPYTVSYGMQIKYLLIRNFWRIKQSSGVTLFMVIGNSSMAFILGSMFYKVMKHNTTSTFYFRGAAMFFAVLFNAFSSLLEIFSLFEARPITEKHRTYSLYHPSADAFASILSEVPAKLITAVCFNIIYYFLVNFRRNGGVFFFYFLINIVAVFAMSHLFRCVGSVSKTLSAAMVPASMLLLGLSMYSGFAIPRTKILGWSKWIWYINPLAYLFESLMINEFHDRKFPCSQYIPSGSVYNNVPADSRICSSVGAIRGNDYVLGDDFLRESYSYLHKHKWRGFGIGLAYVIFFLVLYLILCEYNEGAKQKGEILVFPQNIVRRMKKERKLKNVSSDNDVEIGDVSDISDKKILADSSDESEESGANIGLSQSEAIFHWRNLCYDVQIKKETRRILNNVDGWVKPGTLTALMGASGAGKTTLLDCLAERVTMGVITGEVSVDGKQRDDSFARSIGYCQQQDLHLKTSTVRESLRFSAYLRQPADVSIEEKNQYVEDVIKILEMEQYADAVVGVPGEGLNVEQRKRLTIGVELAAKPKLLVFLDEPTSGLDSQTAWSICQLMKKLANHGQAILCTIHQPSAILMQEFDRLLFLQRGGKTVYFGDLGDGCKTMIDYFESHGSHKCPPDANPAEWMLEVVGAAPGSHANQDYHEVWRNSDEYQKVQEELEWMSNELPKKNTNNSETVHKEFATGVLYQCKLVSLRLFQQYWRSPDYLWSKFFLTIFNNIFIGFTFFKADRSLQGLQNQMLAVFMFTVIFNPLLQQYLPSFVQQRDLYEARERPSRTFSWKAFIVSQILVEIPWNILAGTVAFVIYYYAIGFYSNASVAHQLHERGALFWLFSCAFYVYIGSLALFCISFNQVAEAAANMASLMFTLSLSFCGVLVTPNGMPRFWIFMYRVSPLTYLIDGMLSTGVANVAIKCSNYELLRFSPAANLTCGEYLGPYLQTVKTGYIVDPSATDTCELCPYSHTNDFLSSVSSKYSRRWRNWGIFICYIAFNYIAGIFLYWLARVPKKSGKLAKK

[12] = tested on: YEM 15 C. albicans, CDR1CDR2 up; assay: microbe, parasite or virus in culture; format: cell-based; details: YEM 15, 24 hrs, 80% inhibition
YEM 53 C. krusei = assay: FEPI MIC with/without 1/8 fluconazole MIC at 24 hrs (Table 11); format: cell-based; details: YEM 53, 24 hrs, 80% inhibition
[13] = biological target: pBEN (MF) efflux pump in S. cerevisiae YEM-2 (Candida albicans, UniProt P28873); assay: cell-based; format: cell-based, C. albicans; details: YEM-2 pBEN; fluconazole fixed at FLUhalf 5.6
pBEN (MF) efflux pump in S. cerevisiae YEM-2, sequence (P28873 whole entry): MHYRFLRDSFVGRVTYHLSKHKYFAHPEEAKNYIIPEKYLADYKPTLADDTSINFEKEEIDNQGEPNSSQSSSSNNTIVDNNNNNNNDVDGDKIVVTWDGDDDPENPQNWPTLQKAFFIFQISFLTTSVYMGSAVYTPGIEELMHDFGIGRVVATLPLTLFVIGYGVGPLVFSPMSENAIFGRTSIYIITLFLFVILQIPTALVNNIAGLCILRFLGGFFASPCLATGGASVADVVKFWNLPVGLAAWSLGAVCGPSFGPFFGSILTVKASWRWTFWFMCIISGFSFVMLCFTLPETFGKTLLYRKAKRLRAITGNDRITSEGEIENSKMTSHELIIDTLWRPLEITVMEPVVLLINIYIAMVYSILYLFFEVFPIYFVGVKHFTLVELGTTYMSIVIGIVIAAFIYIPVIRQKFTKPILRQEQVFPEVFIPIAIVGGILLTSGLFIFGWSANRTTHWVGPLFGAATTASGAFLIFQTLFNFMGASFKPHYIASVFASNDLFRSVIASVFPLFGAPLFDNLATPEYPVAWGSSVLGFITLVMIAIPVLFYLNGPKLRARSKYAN

[14] = biological target: pFLU (MF) efflux pump in S. cerevisiae YEM-38 (Candida albicans, UniProt G1UB37); assay: cell-based; format: cell-based, C. albicans; details: YEM-38 pFLU; fluconazole fixed at FLUhalf 2
pFLU (MF) efflux pump in S. cerevisiae YEM-38, sequence (G1UB37 whole entry): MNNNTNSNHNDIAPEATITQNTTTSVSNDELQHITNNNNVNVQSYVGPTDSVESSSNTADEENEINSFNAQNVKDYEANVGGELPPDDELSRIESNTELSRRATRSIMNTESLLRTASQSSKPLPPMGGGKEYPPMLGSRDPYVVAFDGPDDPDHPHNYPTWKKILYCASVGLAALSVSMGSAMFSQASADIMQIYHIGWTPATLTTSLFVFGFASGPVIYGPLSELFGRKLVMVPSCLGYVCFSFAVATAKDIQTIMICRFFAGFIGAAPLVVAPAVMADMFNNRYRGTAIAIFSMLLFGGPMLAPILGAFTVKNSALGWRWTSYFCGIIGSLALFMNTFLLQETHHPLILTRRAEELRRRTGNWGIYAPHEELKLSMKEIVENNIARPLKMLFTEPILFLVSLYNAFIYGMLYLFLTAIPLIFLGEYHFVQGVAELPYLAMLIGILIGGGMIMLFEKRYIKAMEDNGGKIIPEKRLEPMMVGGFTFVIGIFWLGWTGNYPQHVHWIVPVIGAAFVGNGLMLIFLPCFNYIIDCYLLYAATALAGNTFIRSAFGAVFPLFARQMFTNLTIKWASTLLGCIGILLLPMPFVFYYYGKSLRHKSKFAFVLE

[15] = tested on: YEM 13 C. albicans BEN up; assay: microbe, parasite or virus in culture; format: cell-based; details: YEM 13, 24 hrs, 80% inhibition
YEM 51 C. glabrata wt = assay: FEPI MIC with/without 1/8 fluconazole MIC at 24 hrs (Table 11); format: cell-based; details: YEM 51, 24 hrs, 80% inhibition

Milbemycin oxime [Compound 2]
MIC of compound in the presence of fluconazole (+) ([1]; 1/8 × MIC of fluconazole): 4 µg/mL
MIC of compound in the absence of fluconazole (−) [1]: > 64 µg/mL
MIC of compound in the presence of fluconazole (+) ([2]; 1/8 × MIC of fluconazole): > 64 µg/mL
MIC of compound in the absence of fluconazole (−) [2]: > 64 µg/mL
FEPI MIC with fluconazole, 60% Inh (Aspergillus fumigatus; fluconazole 32 μg/ml (1/4 MIC), 60% inhibition): 2
FEPI MIC with fluconazole, 80% Inh (Aspergillus fumigatus; fluconazole 32 μg/ml (1/4 MIC), 80% inhibition): >64
FEPI MIC with itraconazole, 60% Inh (Aspergillus fumigatus; itraconazole 0.063 μg/ml (1/4 MIC), 60% inhibition): >64
FEPI MIC with itraconazole, 80% Inh (Aspergillus fumigatus; itraconazole 0.063 μg/ml (1/4 MIC), 80% inhibition): >64
FEPI MIC with ketoconazole, 60% Inh (Aspergillus fumigatus; ketoconazole 4 μg/ml (1/4 MIC), 60% inhibition): 0.5
FEPI MIC with ketoconazole, 80% Inh (Aspergillus fumigatus; ketoconazole 4 μg/ml (1/4 MIC), 80% inhibition): 0.5
FEPI MIC (alone) (Aspergillus fumigatus; no azole, 80% inhibition, 35° C., CM Broth): >64
Minimal concentration required to reduce the MIC of fluconazole by sixteen-fold [3]: 1.25 µg/mL
Minimal concentration required to reduce the MIC of fluconazole by sixteen-fold [4]: <0.07 µg/mL
Minimal concentration required to reduce the MIC of fluconazole by sixteen-fold [5]: >80 µg/mL
FEPIhalf (concentration needed to reduce activity of efflux pump by 50%) [6]: <0.06
FEPIhalf (concentration needed to reduce activity of efflux pump by 50%) [7]: 0.125
MIC of compound in the presence of fluconazole (+) ([8]; 1/8 × MIC of fluconazole): 64 µg/mL
MIC of compound in the absence of fluconazole (−) [8]: > 64 µg/mL
FEPIhalf (concentration needed to reduce activity of efflux pump by 50%) [9]: >64
Minimal concentration required to reduce the MIC of fluconazole by sixteen-fold (C. albicans YEM-13 (BEN)): 80 µg/mL
MIC of compound in the presence of fluconazole (+) (YEM 30 C. albicans wt; 1/8 × MIC of fluconazole): ≦0.03
MIC of compound in the absence of fluconazole (−) (YEM 30 C. albicans wt): > 64 µg/mL
MIC of fluconazole, Flu + McOxm (2.5 μg/ml) [10]: 2 µg/mL
FEPIhalf (concentration needed to reduce activity of efflux pump by 50%) [11]: 64
MIC of compound in the presence of fluconazole (+) ([12]; 1/8 × MIC of fluconazole): ≦0.03
MIC of compound in the absence of fluconazole (−) [12]: > 64 µg/mL
MIC of compound in the presence of fluconazole (+) (YEM 53 C. krusei; 1/8 × MIC of fluconazole): 2 µg/mL
MIC of compound in the absence of fluconazole (−) (YEM 53 C. krusei): > 64 µg/mL
FEPIhalf (concentration needed to reduce activity of efflux pump by 50%) [13]: >64
FEPIhalf (concentration needed to reduce activity of efflux pump by 50%) [14]: >64
MIC of compound in the presence of fluconazole (+) ([15]; 1/8 × MIC of fluconazole): > 64 µg/mL
MIC of compound in the absence of fluconazole (−) [15]: > 64 µg/mL
MIC of compound in the presence of fluconazole (+) (YEM 51 C. glabrata wt; 1/8 × MIC of fluconazole): 16 µg/mL
MIC of compound in the absence of fluconazole (−) (YEM 51 C. glabrata wt): > 64 µg/mL
